Laboratory results published in the supplement of paper PMC10307832.

How the values were obtained:
Assay in all cases: relative viability (nuclei count vs DMSO), 5 days (fraction); higher = more cells survive
Tipifarnib + Trametinib = compound: Cn1cncc1[C@@](N)(c1ccc(Cl)cc1)c1ccc2c(c1)c(-c1cccc(Cl)c1)cc(=O)n2C [Tipifarnib] + CC(=O)Nc1cccc(-n2c(=O)n(C3CC3)c(=O)c3c(Nc4ccc(I)cc4F)n(C)c(=O)c(C)c32)c1 [Trametinib] (partner 0.02 µM)
Outline: (§1)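 Lung cancer cell lines were pin-tool dosed in 1536-well plates on the day after seeding, with either a lone drug or a fixed anchor-drug dose plus five library-drug doses (not always all listed) in √10 steps. Nuclei were counted on 4× images after 5 days. Relative viability is the ratio of treated-well to vehicle-well nuclei counts, with each value a median of duplicate plates.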

Tipifarnib + OSI-027 = compound: Cn1cncc1[C@@](N)(c1ccc(Cl)cc1)c1ccc2c(c1)c(-c1cccc(Cl)c1)cc(=O)n2C [Tipifarnib] + COc1cccc2cc(-c3nc([C@H]4CC[C@H](C(=O)O)CC4)n4ncnc(N)c34)[nH]c12 [OSI-027] (partner 0.5 µM)
Outline: as §1

Tipifarnib + Lapatinib = compound: Cn1cncc1[C@@](N)(c1ccc(Cl)cc1)c1ccc2c(c1)c(-c1cccc(Cl)c1)cc(=O)n2C [Tipifarnib] + CS(=O)(=O)CCNCc1ccc(-c2ccc3ncnc(Nc4ccc(OCc5cccc(F)c5)c(Cl)c4)c3c2)o1 [Lapatinib] (partner 2 µM)
Outline: as §1

Tipifarnib + Linsitinib = compound: Cn1cncc1[C@@](N)(c1ccc(Cl)cc1)c1ccc2c(c1)c(-c1cccc(Cl)c1)cc(=O)n2C [Tipifarnib] + C[C@]1(O)C[C@@H](c2nc(-c3ccc4ccc(-c5ccccc5)nc4c3)c3c(N)nccn32)C1 [Linsitinib] (partner 1 µM)
Outline: as §1

Cell Line	relative viability (Tipifarnib + Trametinib; first compound 0.01 µM)	relative viability (Tipifarnib + Trametinib; first compound 0.03162 µM)	relative viability (Tipifarnib + Trametinib; first compound 0.1 µM)	relative viability (Tipifarnib + Trametinib; first compound 0.3162 µM)	relative viability (Tipifarnib + Trametinib; first compound 1 µM)	relative viability (Tipifarnib + OSI-027; first compound 0.01 µM)	relative viability (Tipifarnib + OSI-027; first compound 0.03162 µM)	relative viability (Tipifarnib + OSI-027; first compound 0.1 µM)	relative viability (Tipifarnib + OSI-027; first compound 0.3162 µM)	relative viability (Tipifarnib + OSI-027; first compound 1 µM)	relative viability (Tipifarnib + Lapatinib; first compound 0.01 µM)	relative viability (Tipifarnib + Lapatinib; first compound 0.03162 µM)	relative viability (Tipifarnib + Lapatinib; first compound 0.1 µM)	relative viability (Tipifarnib + Lapatinib; first compound 0.3162 µM)	relative viability (Tipifarnib + Lapatinib; first compound 1 µM)	relative viability (Tipifarnib + Linsitinib; first compound 0.01 µM)	relative viability (Tipifarnib + Linsitinib; first compound 0.03162 µM)	relative viability (Tipifarnib + Linsitinib; first compound 0.1 µM)	relative viability (Tipifarnib + Linsitinib; first compound 0.3162 µM)	relative viability (Tipifarnib + Linsitinib; first compound 1 µM)
201T	0.75	0.734	0.722	0.656	0.649	0.706	0.805	0.692	0.46	0.368	0.988	1.05	0.965	0.947	0.866	1.04	1.04	0.989	0.949	1.07
A549	–	–	–	–	–	–	–	–	–	–	1.09	0.793	0.643	0.439	0.302	0.707	0.596	0.49	0.325	0.233
A-427	0.872	0.758	0.633	0.654	0.549	0.406	0.316	0.365	0.361	0.254	1	1.13	1.08	0.893	0.46	1.18	1.11	1.05	1.09	1.09
ABC-1	–	–	–	–	–	0.554	–	0.414	0.32	0.267	1.37	1.39	1.58	1.39	1.59	0.827	–	0.76	0.665	0.554
BEN	0.95	0.87	0.873	0.856	0.761	0.296	0.289	0.303	0.262	0.309	0.743	0.842	0.629	0.578	0.568	1.03	1.18	0.835	0.696	0.716
CAL-12T	0.359	0.289	0.234	0.222	0.177	0.565	0.358	0.37	0.272	0.232	0.709	0.716	0.619	0.525	0.393	0.812	0.606	0.616	0.387	0.403
COR-L23	0.609	0.301	0.329	0.33	0.277	0.572	0.36	0.261	0.24	0.202	0.942	0.641	0.739	0.582	0.4	1.01	0.628	0.614	0.374	0.409
COR-L 105	0.409	0.491	0.427	0.43	0.369	0.759	0.588	0.5	0.427	0.417	0.418	0.317	0.349	0.378	0.296	0.88	0.855	0.674	0.554	0.668
Calu-6	–	–	–	–	–	–	–	–	–	–	1.02	0.801	0.771	0.599	0.535	0.941	0.679	0.645	0.515	0.444
ChaGo-K-1	0.96	0.942	0.868	0.853	0.674	0.483	0.548	0.602	0.442	0.332	–	–	–	–	–	–	–	–	–	–
EBC-1	–	–	–	–	–	–	–	–	–	–	0.199	0.214	0.2	0.188	0.215	0.854	0.288	0.332	0.265	0.212
EKVX	0.261	0.35	0.244	0.298	0.264	0.728	0.7	0.699	0.516	0.39	0.202	0.21	0.185	0.189	0.17	1.06	1.11	0.972	0.755	0.657
EMC-BAC-2	0.81	0.754	0.655	0.606	0.614	0.365	0.3	0.364	0.3	0.266	0.897	0.854	0.771	0.718	0.351	0.855	0.798	0.689	0.706	0.636
EPLC-272H	0.336	0.274	0.246	0.303	0.234	0.276	0.229	0.247	0.267	0.212	1.02	0.88	0.761	0.64	0.216	1.17	1.16	1.21	0.83	0.531
H3255	0.674	0.576	0.542	0.458	0.471	0.757	0.704	0.61	0.471	0.438	0.249	0.3	0.27	0.232	0.214	1.06	0.895	0.916	0.591	0.684
HARA	0.784	0.77	0.635	0.588	0.508	0.618	0.408	0.298	0.137	0.147	0.737	0.682	0.735	0.664	0.332	1.08	0.925	0.956	0.94	0.87
HCC-15	0.36	0.35	0.273	0.258	0.221	0.555	0.467	0.293	0.255	0.191	0.802	0.702	0.639	0.488	0.215	0.78	0.751	0.627	0.544	0.548
HCC-44	0.992	0.942	0.908	0.781	0.891	0.736	0.423	0.383	0.329	0.289	0.876	0.898	0.853	0.767	0.494	0.563	0.615	0.557	0.493	0.521
